The text below walks through data of patent US8343580B2, “Organometallic compounds” (Rohm and Haas Electronic Materials LLC, priority 2009, dated 2013).

Data set [1] is described as follows: Solubility in organic solvents at room temperature by direct dissolution method. As to conditions: for Solubility: room temperature; for Solubility in aromatic solvents: toluene and tetralin, by NMR spectroscopy and direct dissolution method. It is filed as physicochemical. As for the experimental part:
The solubility of N,N′-di-tert-butylacetamidinato-N,N′-di-tert-butylacetamidinatocarbamoyl dicarbonyl Ruthenium(II) (“Ru-Cbm-Invention”, from Example 1) and bis(N,N′-di-tert-butylacetamidinato) dicarbonyl Ruthenium(II) (“Ru-AMD-Comparative”) were determined at room temperature in a variety of solvents by direct dissolution method. The solid Ru-AMD-Comparative compound was prepared by the synthetic route described in R. Gordon et al., The Open Inorganic Chemistry Journal, 2 (2008) 11. Compounds with less than 0.01 wt % dissolved were considered to be sparingly soluble.

Data set [2] can be described thus: Decomposition temperature by accelerated rate calorimetry (ARC). It is filed as physicochemical. The following applies: ARC adiabatic calorimeter, self-heating exceeding 0.02° C./minute. As for the experimental part:
The decomposition temperature of N,N′-di-tert-butylacetamidinato-N,N′-di-tert-butylacetamidinatocarbamoyl dicarbonyl Ruthenium(II) (“Ru(AMD)-Cbm”) was determined using accelerated rate calorimetry (ARC™ adiabatic calorimeter available from Arthur D. Little). A sample of the compound was placed in a spherical bomb that was connected to a sealed pressure measurement system. A thermocouple was attached to the outside of the bomb and the bomb was placed in the center of the calorimeter assembly. The calorimeter assembly has 3 zones, each zone having its own thermocouple and heaters. The ARC™ calorimeter uses a heat-wait-search-exotherm program. The calorimeter and the sample were heated to a start temperature. The sample and calorimeter temperatures equilibrated during the wait portion of the program. Next, the calorimeter monitored the sample for self-heating (exceeding 0.02° C./minute) during the search portion of the program to determine the onset temperature of the exotherm. To be useful in ALD processes, a precursor should not decompose at temperatures at or below 140° C., and preferably not at or below 150° C.

Setting [3] is: Mixture of Diphenyl ether and Biphenyl.
Setting [4] is: Polyethylene glycol dibutyl ether.

On to `CC(=NC(C)(C)C)[N]([Ru][N](C(C)=NC(C)(C)C)C(C)(C)C)C(C)(C)C.[C-]#[O+].[C-]#[O+]` [Ru-AMD, bis(N,N′-di-tert-butylacetamidinato) dicarbonyl Ruthenium(II), reference compound], for which the Solubility in data set [1] (Cyclohexylbenzene), in data set [1] (Cyclohexylbenzene:LAB (1:1)), in data set [1] (LAB), in data set [1] (setting [3]), in data set [1] (Pentamethyldiethylenetriamine) and in data set [1] (setting [4]) was less than 0.01 wt % each time. The Solubility is on record as 0.7 wt % in data set [1] (THF), less than 0.01 wt % in data set [1] (Tetralin), less than 0.01 wt % in data set [1] (Toluene) and “insoluble” in data set [1] (n-Octane). Also, the “Solubility in aromatic solvents” value in data set [1] is recorded as “little to no solubility”.
As to `CC1=[N+](C(C)(C)C)[Ru-4]2([C]#[O+])([C]#[O+])([C](=O)N1C(C)(C)C)[N](C(C)(C)C)C(C)=[N+]2C(C)(C)C` [Ru-Cbm, N,N′-di-tert-butylacetamidinato-N,N′-di-tert-butylacetamidinatocarbamoyl dicarbonyl Ruthenium(II)], the Solubility was 6.0 wt % in data set [1] (Cyclohexylbenzene); 6.0 wt % in data set [1] (Cyclohexylbenzene:LAB (1:1)); 3.0 wt % in data set [1] (LAB); 12.0 wt % in data set [1] (setting [3]); 15.0 wt % in data set [1] (Pentamethyldiethylenetriamine); 8.0 wt % in data set [1] (setting [4]). Besides, the Solubility in data set [1] (THF) was determined as 43.6 wt %; in data set [1] (Tetralin), 8.5 wt %; in data set [1] (Toluene) it was 38.5 wt %; in data set [1] (n-Octane), 2.3 wt %. In data set [1] (in tetrahydrofuran), the “Increase of solubility as compared to Ru-AMD” value was 62 fold. In data set [1], the “Solubility in aromatic solvents” value is recorded as “soluble”. Further, in data set [2], the “Temperature up to which the sample was stable (decomposition, onset of exotherm)” value was “up to 250 °C”.
